Source: US20110129868A1, “CELL CAPABLE OF REPLICATING NOVEL HCV REPLICON, CELL CAPABLE OF REPLICATING FULL-LENGTH HCV RNA, AND USE OF THOSE CELLS” (priority 2008, published 2011)
Where two headings read alike, the source gives them in different places.

Experiments:
ORL11 cells = assay: cell count by trypan blue staining, ORL11 cells; type: cell-based, human
OR6 cells = assay: cell count by trypan blue staining, OR6 cells; type: cell-based, human; conditions: drug at the concentration corresponding to the EC50 value
[1] = system: full-length HCV RNA replication in ORL11 cells; assay: microbe, parasite or virus in culture; type: cell-based, HCV-O strain (genotype 1b)
Description: (§1) Renilla luciferase was quantified by collecting cells using a Renilla Luciferase Assay System (Promega) according to the manufacturer's experiment protocol.
(§2) Luciferase activity of each cell line was then measured at hour 24, 48, and 72. […] SD values were calculated based on the results from three samples at each point. […]

[2] = system: full-length HCV RNA replication in ORL8 cells; assay: microbe, parasite or virus in culture; type: cell-based, HCV-O strain (genotype 1b); conditions: for EC50: Hepatitis C virus
Description: as §1, §2

[3] = system: HCV replicon of Con1 strain; conditions: cited from earlier work
[4] = system: full-length HCV RNA replication in OR6 cells; assay: microbe, parasite or virus in culture; type: cell-based, HCV-O strain (genotype 1b)
From the text: as §1
An OR6-cell assay system was used as a control.

ORL8 cells = assay: cell count by trypan blue staining, ORL8 cells; type: cell-based, human; conditions: drug at the concentration corresponding to the EC50 value
[5] = system: full-length HCV RNA replication in OR6 cells; conditions: OR6 cell assay system (Naka et al., BBRC 2005); cited from earlier work
[6] = in vivo; cited from earlier work
[7] = system: ORL8, ORL11, and OR6 cells; assay: cell count / cytotoxicity check, cell lines not itemised; conditions: at a concentration of 12.5 μM
Description: In order to ascertain that the decrease in luciferase activity in response to the addition of ribavirin was not due to the cell growth inhibition or cytotoxicity by ribavirin, the cells were cultured under the same conditions used for the luciferase assay, and counted using a trypan blue staining technique. The effect of adding ribavirin in the concentration corresponding to the EC50 value of each cell line was examined.
FLV (Calbiochem, 344095) was used.

[8] = ORL11 cells, drug at the concentration corresponding to the EC50 value, trypan blue
[9] = Hepatitis C virus, 72 h, luciferase activity after 72 hours, read-out: EC50
[10] = drug concentrations based on the EC50 values
[11] = ORL8 cells, luciferase activity after 72 hours, read-out: EC50
[12] = ORL8 cells, drug concentrations based on the EC50 values
[13] = Hepatitis C virus, OR6 cells, luciferase activity after 72 hours, read-out: EC50
[14] = OR6 cells, drug concentrations based on the EC50 values

Question: With `CC(=O)Oc1ccccc1C(=O)O` [ASA, Acetylsalicylic Acid] as the molecule, how does the “cell count over the control cells” value (ORL11 cells; [8]) read?
Answer: 72%

Question: And the “cell count over the control cells” value (OR6 cells)?
Answer: 51%

Question: What about the EC50 ([1]; Hepatitis C virus, 72 h, luciferase activity after 72 hours) of the same molecule?
Answer: 1170 µM

Question: What about the EC50 ([2]; ORL8, 72 h) of the same molecule?
Answer: 1330 µM

Question: What about the EC50 ([3]; HCV replicons of Con1 strain (Trujillo-Murillo et al.)) of the same molecule?
Answer: 4000 µM

Question: What about the EC50 ([4]; Hepatitis C virus, OR6, 72 h) of the same molecule?
Answer: 2160 µM

Question: And the “cell count over the control cells” value (ORL8 cells)?
Answer: 53%

Question: For `CC(C)n1c(/C=C/C(O)CC(O)CC(=O)O)c(-c2ccc(F)cc2)c2ccccc21` (stereo not drawn) [FLV, Fluvastatin], which “cell count over the control cells” value (ORL11 cells; [8]) is on record?
Answer: ≥ 97%

Question: And the “cell count over the control cells” value (OR6 cells)?
Answer: ≥ 97%

Question: What about the EC50 ([1]; FLV from a different manufacturer (LKT laboratories Inc., F4482), read-out: EC50) of the same molecule?
Answer: 0.14 µM

Question: And the EC50 [1, 9]?
Answer: 0.32 µM

Question: What about the EC50 ([1]; Hepatitis C virus, FLV from a different manufacturer (LKT laboratories Inc., F4482), read-out: EC50) of the same molecule?
Answer: 0.11 µM

Question: And the “luciferase activity after treatment (single agent or combined use)” value (shortened to “luciferase activity after treatment”) [1, 10]?
Answer: 51%

Question: What about the EC50 ([2]; ORL8 cells, FLV from a different manufacturer (LKT laboratories Inc., F4482), read-out: EC50) of the same molecule?
Answer: 0.31 µM

Question: What about the EC50 [2, 11] of the same molecule?
Answer: 0.28 µM

Question: What about the “luciferase activity after treatment” value [2, 12] of the same molecule?
Answer: 59%

Question: What about the EC50 ([4]; Hepatitis C virus, OR6 cells, FLV from a different manufacturer (LKT laboratories Inc., F4482), read-out: EC50) of the same molecule?
Answer: 1.44 µM

Question: What about the EC50 [4, 13] of the same molecule?
Answer: 1.22 µM

Question: And the “luciferase activity after treatment” value [4, 14]?
Answer: 55%

Question: And the “cell count over the control cells” value (ORL8 cells)?
Answer: ≥ 97%

Question: Which EC50 [1, 9] does the source give for `COC1=C2C[C@@H](C)C[C@H](OC)[C@H](O)[C@@H](C)/C=C(\C)[C@H](OC(N)=O)[C@@H](OC)/C=C\C=C(/C)C(=O)NC(=CC1=O)C2=O` [Geldanamycin] here?
Answer: 0.00331 µM

Question: And the EC50 [2, 11]?
Answer: 0.00257 µM

Question: And the EC50 [4, 13]?
Answer: 0.0021 µM

Question: Which EC50 [1, 9] does the source give for `CC[C@H](C)C(=O)O[C@H]1C[C@@H](C)C=C2C=C[C@H](C)[C@H](CC[C@@H]3C[C@@H](O)CC(=O)O3)[C@H]21` [LOV, Lovastatin] here?
Answer: 1.04 µM

Question: What about the EC50 [2, 11] of the same molecule?
Answer: 1.49 µM

Question: And the EC50 [4, 13]?
Answer: 3 µM

Question: Which EC50 [1, 9] does the source give for `NC(=O)c1ncn([C@@H]2O[C@H](CO)[C@@H](O)[C@H]2O)c1O` [Mizoribine] here?
Answer: 76.5 µM

Question: What about the EC50 [2, 11] of the same molecule?
Answer: 58.8 µM

Question: What about the “luciferase activity (value relative to no drug)” value ([4]; OR6 cells, at 200 μM, after 72 hours) of the same molecule?
Answer: above 50%

Question: With `CCCCCCC(=O)CCCCCC/C=C/C[C@@H](O)[C@H](O)[C@@](N)(CO)C(=O)O` [Myriocin] as the molecule, how does the “cell count over the control cells” value (ORL11 cells; [8]) read?
Answer: ≥ 91%

Question: And the “cell count over the control cells” value (OR6 cells)?
Answer: ≥ 91%

Question: And the EC50 [1, 9]?
Answer: 0.00362 µM

Question: And the EC50 [2, 11]?
Answer: 0.00516 µM

Question: What about the EC50 ([3]; Con1 strain, analyzed 72 hours after the addition of the drug) of the same molecule?
Answer: 0.0058 µM

Question: What about the “luciferase activity (relative to no drug)” value ([4]; OR6 cells, at 5 nM to 40 nM, after 72 hours, EC50 not calculable) of the same molecule?
Answer: below 60%

Question: And the “cell count over the control cells” value (ORL8 cells)?
Answer: 83.5%

Question: Which “cell count over the control cells” value (ORL11 cells; [8]) does the source give for `O=C(O)C[C@H](O)C[C@H](O)/C=C/c1c(C2CC2)nc2ccccc2c1-c1ccc(F)cc1` [PTV, Pitavastatin] here?
Answer: ≥ 80%

Question: What about the “cell count over the control cells” value (OR6 cells) of the same molecule?
Answer: ≥ 80%

Question: And the EC50 [1, 9]?
Answer: 0.16 µM

Question: And the “luciferase activity after treatment” value [1, 10]?
Answer: 49%

Question: What about the EC50 [2, 11] of the same molecule?
Answer: 0.45 µM

Question: And the “luciferase activity after treatment” value [2, 12]?
Answer: 43%

Question: What about the EC50 [4, 13] of the same molecule?
Answer: 0.46 µM

Question: And the “luciferase activity after treatment” value [4, 14]?
Answer: 56%

Question: And the “cell count over the control cells” value (ORL8 cells)?
Answer: ≥ 80%

Question: For `NC(=O)c1ncn([C@@H]2O[C@H](CO)[C@@H](O)[C@H]2O)n1` [Ribavirin], which EC50 [5] is on record?
Answer: 76 µM

Question: And the blood concentrations [6]?
Answer: 10 to 14 µM

Question: What about the “cell count over the control cells” value (ORL11 cells; [8]) of the same molecule?
Answer: ≥ 98%

Question: What about the “cell count over the control cells” value (OR6 cells) of the same molecule?
Answer: ≥ 98%

Question: What about the EC50 [1, 9] of the same molecule?
Answer: 15.9 µM

Question: And the “luciferase activity after treatment” value ([1]; IFN-α at 0.25 IU/ml, ribavirin at 12.5 W)?
Answer: 49%

Question: And the EC50 [2, 11]?
Answer: 10.1 µM

Question: And the “luciferase activity after treatment” value ([2]; ORL8 cells, IFN-α at 0.25 IU/ml, ribavirin)?
Answer: 35%

Question: What about the EC50 [4, 13] of the same molecule?
Answer: 119 µM

Question: What about the “luciferase activity after treatment” value ([4]; OR6 cells, IFN-α at 0.25 IU/ml, ribavirin) of the same molecule?
Answer: 97%

Question: And the “cell count over the control cells” value (ORL8 cells)?
Answer: ≥ 98%

Question: What about the cytotoxicity [7] of the same molecule?
Answer: not recognized

Question: Which results are given for `CCC(C)(C)C(=O)O[C@H]1C[C@@H](C)C=C2C=C[C@H](C)[C@H](CC[C@@H]3C[C@@H](O)CC(=O)O3)[C@H]21` [SMV, Simvastatin]?
Answer: EC50 [1, 9]: 0.15 µM; EC50 [2, 11]: 0.28 µM; EC50 [4, 13]: 1.42 µM

B1: IFN-γ: interferon gamma (Sigma), pharmaceutical agent having an anti-HCV action (protein, UniProt P01579 24-161, looked up)
Interferon gamma: QDPYVKEAENLKKYFNAGHSDVADNGTLFLGILKNWKEESDRKIMQSQIVSFYFKLFKNFKDDQSIQKSVETIKEDMNVKFFNSNKKKRDDFEKLTNYSVTDLNVQRKAIHELIQVMAELSPAAKTGKRKRSQMLFRG
Question: For B1, which “cell count over the control cells” value (ORL11 cells) is on record?
Answer: ≥ 90%

Question: What about the “cell count over the control cells” value (OR6 cells) of the same molecule?
Answer: ≥ 90%

Question: And the “EC50 (50% effective drug concentration)” value ([1]; luciferase activity after 72 hours)?
Answer: 0.13 IU/ml

Question: What about the “EC50 (50% effective drug concentration)” value ([2]; ORL8 cells, luciferase activity after 72 hours) of the same molecule?
Answer: 0.077 IU/ml

Question: And the EC50 ([4]; OR6 cells, luciferase activity after 72 hours)?
Answer: 0.21 IU/ml

Question: And the “cell count over the control cells” value (ORL8 cells)?
Answer: ≥ 90%
